Data taken from patent US20050070480A1, “Peptide arginals and methods for treating disseminated intravascular coagulation” (priority 2001, published 2005).
Like-named read-outs stand apart in the source and are kept apart here.

Test system: endotoxin-treated rabbits
Format: in vivo, rabbit
Conditions: endotoxin-treated rabbits

Compound | Lethality %, 2 hrs (50 U/kg/h) [%] | Lethality no. died/treated animals, 2 hrs (50 U/kg/h) | Lethality %, 4 hrs (50 U/kg/h) [%] | Lethality no. died/treated animals, 4 hrs (50 U/kg/h) | Lethality %, 2 hrs (100 U/kg/h) [%] | Lethality no. died/treated animals, 2 hrs (100 U/kg/h) | Lethality %, 4 hrs (100 U/kg/h) [%] | Lethality no. died/treated animals, 4 hrs (100 U/kg/h) | Lethality %, 2 hrs (0.5 mg/kg/h infusion) [%] | Lethality no. died/treated animals, 2 hrs (0.5 mg/kg/h infusion) | Lethality %, 4 hrs (0.5 mg/kg/h infusion) [%] | Lethality no. died/treated animals, 4 hrs (0.5 mg/kg/h infusion) | Increase in lethality (relative to endotoxin alone) [fold]
heparin | 0 | 0/17 | 35 | 6/17 | 0 | 0/19 | 37 | 7/19 |  |  |  |  | 
N=C(N)NCCC[C@@H](C=O)NC(=O)[C@@H]1CCCN1C(=O)C(O)CCc1ccccc1 (stereo partly drawn) [Compound C3, hPla-Pro-Arg-H] |  |  |  |  |  |  |  |  | 6 | 1/18 | 56 | 10/18 | ~1.8
